From patent publication US20070161637A1, “Substituted pyridin-2-ylamine analogues” (Neurogen Corporation, priority 2003, published 2007)

The molecules below were run against T1, human capsaicin receptor (Homo sapiens, UniProt Q8NER1) (assay: Calcium mobilization assay, determination of antagonist activity (Example 6)). Details: concentration giving 50% decrease in the fluorescence response of cells expressing human capsaicin receptor exposed to capsaicin.
T1 construct: transfected with the pBK-CMV expression construct encoding the full length human capsaicin receptor; expressed in transfected cells; host or cells: HEK293, stably transfected clonal lines, plasmid pBK-CMV
T1 sequence (Q8NER1 whole entry): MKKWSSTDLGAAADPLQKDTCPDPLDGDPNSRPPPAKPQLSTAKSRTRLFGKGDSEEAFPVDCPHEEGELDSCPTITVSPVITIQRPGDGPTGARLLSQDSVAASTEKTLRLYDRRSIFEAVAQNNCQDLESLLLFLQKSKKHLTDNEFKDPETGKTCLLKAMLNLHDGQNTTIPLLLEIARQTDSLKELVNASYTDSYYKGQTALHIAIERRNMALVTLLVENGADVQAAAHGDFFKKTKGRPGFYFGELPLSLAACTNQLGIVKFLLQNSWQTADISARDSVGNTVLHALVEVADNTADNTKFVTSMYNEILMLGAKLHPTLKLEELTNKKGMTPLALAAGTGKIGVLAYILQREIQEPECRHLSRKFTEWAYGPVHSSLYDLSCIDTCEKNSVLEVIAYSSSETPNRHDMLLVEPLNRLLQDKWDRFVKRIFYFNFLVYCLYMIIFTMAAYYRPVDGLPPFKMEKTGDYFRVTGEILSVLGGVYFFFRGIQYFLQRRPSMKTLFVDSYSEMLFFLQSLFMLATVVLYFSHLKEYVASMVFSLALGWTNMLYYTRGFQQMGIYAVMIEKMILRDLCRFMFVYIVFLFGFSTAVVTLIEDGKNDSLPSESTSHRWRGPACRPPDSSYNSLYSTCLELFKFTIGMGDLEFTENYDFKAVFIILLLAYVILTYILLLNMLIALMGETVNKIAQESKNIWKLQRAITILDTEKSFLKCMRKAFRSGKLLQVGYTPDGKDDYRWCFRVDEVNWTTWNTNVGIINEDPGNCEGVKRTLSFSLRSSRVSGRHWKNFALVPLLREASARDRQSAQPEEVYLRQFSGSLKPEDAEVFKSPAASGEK
Format: cell-based
Description: A cDNA encoding full length human capsaicin receptor (SEQ ID NO:1, 2 or 3 of U.S. Pat. No. 6,482,611) was subcloned in the plasmid pBK-CMV (Stratagene, La Jolla, Calif.) for recombinant expression in mammalian cells.
Human embryonic kidney (HEK293) cells were transfected with the pBK-CMV expression construct encoding the full length human capsaicin receptor using standard methods. The transfected cells were selected for two weeks in media containing G418 (400 μg/ml) to obtain a pool of stably transfected cells. Independent clones were isolated from this pool by limiting dilution to obtain clonal stable cell lines for use in subsequent experiments.
Cells transfected with expression plasmids (as described in Example 4) and thereby expressing human capsaicin receptor are seeded and grown to 70-90% confluency in FALCON black-walled, clear-bottomed 96-well plates (#3904, BECTON-DICKINSON, Franklin Lakes, N.J.). The culture medium is emptied from the 96 well plates and FLUO-3 AM calcium sensitive dye (Molecular Probes, Eugene, Oreg.) is added to each well (dye solution: 1 mg FLUO-3 AM, 440 μL DMSO and 440 μl 20% pluronic acid in DMSO, diluted 1:250 in Krebs-Ringer HEPES (KRH) buffer (25 mM HEPES, 5 mM KCl, 0.96 mM NaH2PO4, 1 mM MgSO4, 2 mM CaCl2, 5 mM glucose, 1 mM probenecid, pH 7.4), 50 μl diluted solution per well). Plates are covered with aluminum foil and incubated at 37° C. for 1-2 hours in an environment containing 5% CO2. After the incubation, the dye is emptied from the plates, and the cells are washed once with KRH buffer, and resuspended in KRH buffer.
To measure the ability of a test compound to agonize or antagonize a calcium mobilization response in cells expressing capsaicin receptors to capsaicin or other vanilloid agonist, the EC50 of the agonist capsaicin is first determined. An additional 20 μl of KRH buffer and 1 μl DMSO is added to each well of cells, prepared as described above. 100 μl capsaicin in KRH buffer is automatically transferred by the FLIPR instrument to each well. Capsaicin-induced calcium mobilization is monitored using either FLUOROSKAN ASCENT (Labsystems; Franklin, Mass.) or FLIPR (fluorometric imaging plate reader system; Molecular Devices, Sunnyvale, Calif.) instruments. Data obtained between 30 and 60 seconds after agonist application are used to generate an 8-point concentration response curve, with final capsaicin concentrations of 1 nM to 3 μM. […] software (Synergy Software, Reading, Pa.) is used to fit the data to the equation: y=a*(1/(1+(b/x)^c)) to determine the 50% excitatory concentration (EC50) for the response. In this equation, y is the maximum fluorescence signal, x is the concentration of the agonist or antagonist (in this case, capsaicin), a is the Emax, b corresponds to the EC50 value and c is the Hill coefficient. Determination Agonist Activity
Test compounds are dissolved in DMSO, diluted in 20 μl KRH buffer so that the final concentration of test compounds in the assay well is between 1 μM and 5 μM, and added to cells prepared as described above. The 96 well plates containing prepared cells and test compounds are incubated in the dark, at room temperature for 0.5 to 6 hours. It is important that the incubation not continue beyond 6 hours. Just prior to determining the fluorescence response, 100 μl capsaicin in KRH buffer at twice the EC50 concentration determined as described above is automatically added by the FLIPR instrument to each well of the 96 well plate for a final sample volume of 200 μl and a final capsaicin concentration equal to the EC50. The final concentration of test compounds in the assay wells is between 1 μM and 5 μM.

Structure (SMILES) | IC50
CC(C)(C)c1ccc(Nc2cc(NCc3ccccc3C(F)(F)F)ncn2)cc1 [Compound 49, N-(4-tert-Butyl-phenyl)-N′-(2-trifluoromethyl-benzyl)-pyrimidine-4,6-diamine] | ≤ 1 µM
CC(C)(C)c1ccc(Nc2cc(NCc3cccc(F)c3)ncn2)cc1 [Compound 50, N-(4-tert-Butyl-phenyl)-N′-(3-fluoro-benzyl)-pyrimidine-4,6-diamine] | ≤ 1 µM
CC(C)(C)c1ccc(Nc2cc(NCc3ccc(Cl)cc3)ncn2)cc1 [Compound 52, N-(4-tert-Butyl-phenyl)-N′-(4-chloro-benzyl)-pyrimidine-4,6-diamine] | ≤ 1 µM
COc1ccc(CNc2cc(Nc3ccc(C(C)(C)C)cc3)ncn2)cc1 [Compound 53, N-(4-tert-Butyl-phenyl)-N′-(4-methoxy-benzyl)-pyrimidine-4,6-diamine] | ≤ 1 µM
CC(C)(C)c1ccc(Nc2nc(NCc3ccccc3Cl)nc(NCc3ccccc3Cl)n2)cc1 [Compound 54, N-(4-tert-Butyl-phenyl)-N′,N″-bis-(2-chloro-benzyl)-[1,3,5]triazine-2,4,6-triamine] | ≤ 1 µM
CC(C)(C)c1ccc(Nc2cc(NCc3ccccn3)ncn2)cc1 [Compound 56, N-(4-tert-Butyl-phenyl)-N′-pyridin-2-ylmethyl-pyrimidine-4,6-diamine] | ≤ 1 µM
CC(C)(C)c1ccc(Nc2cc(NCc3cccnc3)ncn2)cc1 [Compound 57, N-(4-tert-Butyl-phenyl)-N′-pyridin-3-ylmethyl-pyrimidine-4,6-diamine] | ≤ 1 µM
CC(C)(C)c1ccc(Nc2cc(NCc3ccncc3)ncn2)cc1 [Compound 58, N-(4-tert-Butyl-phenyl)-N′-pyridin-4-ylmethyl-pyrimidine-4,6-diamine] | ≤ 1 µM
CCN(CC)c1nc(Nc2ccc(C(F)(F)F)cc2)nc(OCc2ccccc2C(F)(F)F)n1 [Compound 59, N,N-Diethyl-6-(2-trifluoromethyl-benzyloxy)-N′-(4-trifluoromethyl-phenyl)-[1,3,5]triazine-2,4-diamine] | ≤ 1 µM
CC(C)(C)c1ccc(Nc2cc(OCc3ccccc3C(F)(F)F)nc(N)n2)cc1 [Compound 60, N4-(4-tert-Butyl-phenyl)-6-(2-trilfuoromethyl-benzyloxy)-pyrimidine-2,4-diamine] | ≤ 1 µM
CC(C)(C)c1ccc(Nc2cc(NCc3ccccc3)ncn2)cc1 [Compound 61, N-Benzyl-N′-(4-tert-butyl-phenyl)-pyrimidine-4,6-diamine] | ≤ 1 µM
CCCCNc1nc(Nc2ccc(C(F)(F)F)cc2)nc(OCc2ccccc2C(F)(F)F)n1 [Compound 62, N-Butyl-6-(2-trifluoromethyl-benzyloxy)-N′-(4-trifluoromethyl-phenyl)-[1,3,5]triazine-2,4-diamine] | ≤ 1 µM
FC(F)(F)c1ccc(Nc2nc(NC3CCC3)nc(OCc3ccccc3C(F)(F)F)n2)cc1 [Compound 63, N-Cyclobutyl-6-(2-trifluoromethyl-benzyloxy)-N′-(4-trifluoromethyl-phenyl)-[1,3,5]triazine-2,4-diamine] | ≤ 1 µM

More lines, now with the values ahead:

IC50 | Structure (SMILES)
≤ 1 µM | COc1ccccc1COc1nc(N)nc(Nc2ccc(C(C)(C)C)cc2)n1 [Compound 32, N-(4-tert-Butyl-phenyl)-6-(2-methoxy-benzyloxy)-[1,3,5]triazine-2,4-diamine]
≤ 1 µM | CC(C)(C)c1ccc(Nc2nc(Cl)nc(NCc3ccccc3Cl)n2)cc1 [Compound 33, N-(4-tert-Butyl-phenyl)-6-chloro-N′-(2-chloro-benzyl)-[1,3,5]triazine-2,4-diamine]
≤ 1 µM | CC(C)(C)c1ccc(Nc2nc(Cl)nc(NCc3ccccc3F)n2)cc1 [Compound 34, N-(4-tert-Butyl-phenyl)-6-chloro-N′-(2-fluoro-benzyl)-[1,3,5]triazine-2,4-diamine]
≤ 1 µM | COc1ccccc1CNc1nc(Cl)nc(Nc2ccc(C(C)(C)C)cc2)n1 [Compound 35, N-(4-tert-Butyl-phenyl)-6-chloro-N′-(2-methoxy-benzyl)-[1,3,5]triazine-2,4-diamine]
≤ 1 µM | CC(C)(C)c1ccc(Nc2nc(Cl)nc(NCc3ccccc3C(F)(F)F)n2)cc1 [Compound 36, N-(4-tert-Butyl-phenyl)-6-chloro-N′-(2-trifluoromethyl-benzyl)-[1,3,5]triazine-2,4-diamine]
≤ 1 µM | CC(C)(C)c1ccc(Nc2nc(N)nc(NCc3ccccc3Cl)n2)cc1 [Compound 37, N-(4-tert-Butyl-phenyl)-N′-(2-chloro-benzyl)-[1,3,5]triazine-2,4,6-triamine]
≤ 1 µM | CCOc1nc(NCc2ccccc2Cl)nc(Nc2ccc(C(C)(C)C)cc2)n1 [Compound 38, N-(4-tert-Butyl-phenyl)-N′-(2-chloro-benzyl)-6-ethoxy-[1,3,5]triazine-2,4-diamine]
≤ 1 µM | COc1nc(NCc2ccccc2Cl)nc(Nc2ccc(C(C)(C)C)cc2)n1 [Compound 39, N-(4-tert-Butyl-phenyl)-N′-(2-chloro-benzyl)-6-methoxy-[1,3,5]triazine-2,4-diamine]
≤ 1 µM | Cc1nc(NCc2ccccc2Cl)nc(Nc2ccc(C(C)(C)C)cc2)n1 [Compound 40, N-(4-tert-Butyl-phenyl)-N′-(2-chloro-benzyl)-6-methyl-[1,3,5]triazine-2,4-diamine]
≤ 1 µM | CNc1nc(NCc2ccccc2Cl)nc(Nc2ccc(C(C)(C)C)cc2)n1 [Compound 41, N-(4-tert-Butyl-phenyl)-N′-(2-chloro-benzyl)-N″-methyl-[1,3,5]triazine-2,4,6-triamine]
≤ 1 µM | CC(C)(C)c1ccc(Nc2cc(NCc3ccccc3Cl)ncn2)cc1 [Compound 42, N-(4-tert-Butyl-phenyl)-N′-(2-chloro-benzyl)-pyrimidine-4,6-diamine]
≤ 1 µM | CC(C)(C)c1ccc(Nc2nc(N)nc(NCc3ccccc3F)n2)cc1 [Compound 43, N-(4-tert-Butyl-phenyl)-N′-(2-fluoro-benzyl)-[1,3,5]triazine-2,4,6-triamine]
≤ 1 µM | CC(C)(C)c1ccc(Nc2cc(NCc3ccccc3F)ncn2)cc1 [Compound 44, N-(4-tert-Butyl-phenyl)-N′-(2-fluoro-benzyl)-pyrimidine-4,6-diamine]
≤ 1 µM | COc1ccccc1CNc1ncnc(Nc2ccc(C(C)(C)C)cc2)n1 [Compound 45, N-(4-tert-Butyl-phenyl)-N′-(2-methoxy-benzyl)-[1,3,5]triazine-2,4-diamine]
≤ 1 µM | COc1ccccc1CNc1nc(N)nc(Nc2ccc(C(C)(C)C)cc2)n1 [Compound 46, N-(4-tert-Butyl-phenyl)-N′-(2-methoxy-benzyl)-[1,3,5]triazine-2,4,6-triamine]
≤ 1 µM | COc1ccccc1CNc1cc(Nc2ccc(C(C)(C)C)cc2)ncn1 [Compound 47, N-(4-tert-Butyl-phenyl)-N′-(2-methoxy-benzyl)-pyrimidine-4,6-diamine]
≤ 1 µM | COc1cccc(CNc2cc(Nc3ccc(C(C)(C)C)cc3)ncn2)c1 [Compound 51, N-(4-tert-Butyl-phenyl)-N′-(3-methoxy-benzyl)-pyrimidine-4,6-diamine]
≤ 1 µM | COc1ccccc1CNc1nc(NCc2ccccc2OC)nc(Nc2ccc(C(C)(C)C)cc2)n1 [Compound 55, N-(4-tert-Butyl-phenyl)-N′,N″-bis-(2-methoxy-benzyl)-[1,3,5]triazine-2,4,6-triamine]
